# Assay results taken from patent US11643400B2, “MCL-1 inhibitors” (Gilead Sciences, Inc., priority 2018, dated 2023).
# Target: Recombinant human MCL-1 protein (Homo sapiens (Human), UniProt Q07820)
# Assay: MCL-1/Bim Binding AlphaLISA Assay
# Conditions: 6×His-Mcl-1 (171-327) and biotinylated-Bim peptide (51-76)
# Procedure: MCL-1/Bim Binding AlphaLISA Assay.
# Inhibition of the MCL-1 and Bim interaction was measured in the following AlphaLISA assay.
# Recombinant human MCL-1 protein (C-terminal 6×His Tagged Mcl-1 containing residues 171-327) was generated at Gilead Sciences, Inc. (Foster City, Calif.). A biotinylated peptide derived from human Bim (residues 51-76) was purchased from CPC Scientific (Sunnyvale, Calif.). (CPC 834113). AlphaLISA anti-6His-acceptor beads (AL128R), AlphaScreen Streptavidin donor beads (6760002B), and Proxiplate-384 Plus (6008289) were purchased from PerkinElmer.
# The AlphaLISA assay was performed in a 384-well Proxiplate in a total volume of 40 μL. The reaction mixture contained 0.0625 nM 6×His-Mcl-1 (171-327), 0.0625 nM biotinylated-Bim peptide, 10 μg/mL AlphaLISA anti-6×His-AlphaLISA acceptor beads, 40 μg/mL AlphaScreen streptavidin donor beads, and serially diluted test compounds in the binding buffer (20 mM Hepes, pH 7.5 (Teknova H1035); 150 mM NaCl (Promega V4221); 0.002% Brij 35 (Thermo Scientific 20150); 1 mM Dithiothreitol (DTT) Solution (Affymetrix 70726); 0.01% BSA (BioLabs B9000S)). 1,000× test compounds were pre-spotted onto 384-well Proxiplate (Labcyte Echo) by Echo 555 Liquid Handler (Labcyte Inc., San Jose, Calif.) followed by incubation of 5 μl Mcl-1 (171-327) for 1 hour. Then 5 μL Bim (51-76) was added and incubated for 2 hours. Five μL AlphaLISA anti-6His-AlphaLISA acceptor beads were then added for 1 hour followed by addition of 5 μL AlphaScreen streptavidin donor beads for 1 hour. The reaction plates were then read on an Envision multimode reader (PerkinElmer) using AlphaScreen settings. […] Percent inhibition was calculated as shown below: % Inhibition=100%*(Well−Neg)/(Pos−Neg) Neg: negative control, DMSO Pos: positive control, no Mcl-1 protein, no biotinylated-Bim peptide
# Chain of Recombinant human MCL-1 protein (Q07820 171-327): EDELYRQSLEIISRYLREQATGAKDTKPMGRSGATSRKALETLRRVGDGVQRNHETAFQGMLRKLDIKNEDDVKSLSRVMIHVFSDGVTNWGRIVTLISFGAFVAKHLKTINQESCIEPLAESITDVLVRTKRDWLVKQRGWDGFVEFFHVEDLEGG
row,SMILES,IC50 [nM]
1,COc1nn(C)cc1C(=O)N[S@@]1(=O)=NC(=O)c2ccc3c(c2)N(C[C@@H]2CC[C@H]2[C@@H](OC)/C=C/[C@H](OC(=O)c2cn(C)nc2OC)CC1)C[C@@]1(CCCc2cc(Cl)ccc21)CO3 [Example 391],0.702
2,CO[C@H]1/C=C/CCC[S@@](=O)(NC(=O)CCc2cocn2)=NC(=O)c2ccc3c(c2)N(C[C@@H]2CC[C@H]21)C[C@@]1(CCCc2cc(Cl)ccc21)CO3 [Example 57],0.2
3,CCc1nn(C)cc1C(=O)N[S@@]1(=O)=NC(=O)c2ccc3c(c2)N(C[C@@H]2CC[C@H]2[C@@H](OC)/C=C/C[C@H](C)[C@H]1C)C[C@@]1(CCCc2cc(Cl)ccc21)CO3 [Example 188],0.069
4,CO[C@H]1/C=C/C[C@H](C)C[S@@](=O)(NC(=O)NC2CC2)=NC(=O)c2ccc3c(c2)N(C[C@@H]2CC[C@H]21)C[C@@]1(CCCc2cc(Cl)ccc21)CO3 [Example 170],0.06

# System: SKBR3 Cells
# Assay: SKBR3 Cell Viability Assay
# Format: cell-based
# Conditions: 72 hours, CellTiter Glo luminescence, read-out: MCL-1 CV SKBR3 EC50
# Procedure: SKBR3 Cell Viability Assay Materials
# SKBR3 Cells (ATCC HTB-30) were obtained from ATCC (Manassas, Va.) and cultured in McCoy 5A's medium (ATCC 30-2007)+10% fetal bovine serum (SH30071.03, HyClone, Pittsburgh, Pa.) plus 1× Penicillin-Streptomycin L-glutamine (Corning 30-009-C1, Corning, N.Y.)).
# The cell viability assay was conducted in a 384-well tissue culture plate (Grenier 781086, Monroe, N.C.) in a total volume of 70 μL. Test compounds were prepared in 1,000×, serially diluted, and pre-spotted into 384-well tissue culture plate by Echo 555 Liquid Handler (Labcyte Inc., San Jose, Calif.). Seventy pi of 6,000 SKBR3 cells were dispensed into each well of the plate and incubated at 37° C. with 5% CO2 for 72 hours. At the end of incubation, 2× CellTiter Glo (CTG) reagents (1 part buffer with 2 parts substrate) (Promega, Madison, Wis.) were prepared, and the plate and the reagent were equilibrated to room temperature for 30 minutes. CTG reagent was added to each plate by Biomek FX at 20 μL/well with 5 times pipetting and mixing to induce cell lysis. Luminescence was read by Envision multimode reader (PerkinElmer). […] Percent inhibition was calculated as followed: % Inhibition=100%*(Well−Neg)/(Pos−Neg) Neg, negative control, DMSO Pos, positive control, 10 μM Puromycin
row,SMILES,EC50 [nM]
1,CO[C@H]1/C=C/CCC[S@@](=O)(NC(=O)COC2CCOCC2)=NC(=O)c2ccc3c(c2)N(C[C@@H]2CC[C@H]21)C[C@@]1(CCCc2cc(Cl)ccc21)CO3 [Example 105],351
2,CO[C@H]1/C=C/CCC[S@@](=O)(NC(=O)NC2(C(F)(F)F)CC2)=NC(=O)c2ccc3c(c2)N(C[C@@H]2CC[C@H]21)C[C@@]1(CCCc2cc(Cl)ccc21)CO3 [Example 32],1480
3,CCN(CC)C(=O)OC1CN(C(=O)N[S@@]2(=O)=NC(=O)c3ccc4c(c3)N(C[C@@H]3CC[C@H]3[C@@H](OC)/C=C/C[C@H](C)C2)C[C@@]2(CCCc3cc(Cl)ccc32)CO4)C1 [Example 226],71.3
4,COc1nn(C)cc1C(=O)N[S@@]1(=O)=NC(=O)c2ccc3c(c2)N(C[C@@H]2CC[C@H]2[C@@H](OC(=O)OC(C)C)/C=C/C[C@H](C)C1)C[C@@]1(CCCc2cc(Cl)ccc21)CO3 [Example 384],154
5,CO[C@H]1/C=C/CCC[S@@](=O)(NC(=O)CCc2ccccc2)=NC(=O)c2ccc3c(c2)N(C[C@@H]2CC[C@H]21)C[C@@]1(CCCc2cc(Cl)ccc21)CO3 [Example 97],788
6,CO[C@H]1/C=C/CCC[S@@](=O)(NC(=O)COc2ccnn2C)=NC(=O)c2ccc3c(c2)N(C[C@@H]2CC[C@H]21)C[C@@]1(CCCc2cc(Cl)ccc21)CO3 [Example 100],2260
7,CO[C@H]1/C=C/C[C@H](C)C[S@@](=O)(NC(=O)N2CC(C#N)C2)=NC(=O)c2ccc3c(c2)N(C[C@@H]2CC[C@H]21)C[C@@]1(CCCc2cc(Cl)ccc21)CO3 [Example 233],47.2
8,CCC1CN(C(=O)N[S@@]2(=O)=NC(=O)c3ccc4c(c3)N(C[C@@H]3CC[C@H]3[C@@H](OC)/C=C/C[C@H](C)C2)C[C@@]2(CCCc3cc(Cl)ccc32)CO4)C1 [Example 242],84
9,CCOC1CN(C(=O)N[S@@]2(=O)=NC(=O)c3ccc4c(c3)N(C[C@@H]3CC[C@H]3[C@@H](OC)/C=C/C[C@H](C)C2)C[C@@]2(CCCc3cc(Cl)ccc32)CO4)C1 [Example 235],39.8
10,CO[C@H]1/C=C/CCC[S@@](=O)(NC(=O)c2cc3ccccc3n2C)=NC(=O)c2ccc3c(c2)N(C[C@@H]2CC[C@H]21)C[C@@]1(CCCc2cc(Cl)ccc21)CO3 [Example 98],2190
11,CO[C@H]1/C=C/CCC[S@@](=O)(NC(=O)CCCC(F)(F)F)=NC(=O)c2ccc3c(c2)N(C[C@@H]2CC[C@H]21)C[C@@]1(CCCc2cc(Cl)ccc21)CO3 [Example 95],1100
12,CO[C@H]1/C=C/CCC[S@@](=O)(NC(=O)CCc2c(C)cnn2C)=NC(=O)c2ccc3c(c2)N(C[C@@H]2CC[C@H]21)C[C@@]1(CCCc2cc(Cl)ccc21)CO3 [Example 103],10000
13,CO[C@H]1/C=C/CCC[S@@](=O)(NC(=O)CCC(F)(F)F)=NC(=O)c2ccc3c(c2)N(C[C@@H]2CC[C@H]21)C[C@@]1(CCCc2cc(Cl)ccc21)CO3 [Example 94],902
14,COC1CCN(C(=O)N[S@@]2(=O)=NC(=O)c3ccc4c(c3)N(C[C@@H]3CC[C@H]3[C@@H](OC)/C=C/C[C@H](C)C2)C[C@@]2(CCCc3cc(Cl)ccc32)CO4)CC1 [Example 320],36.6
15,CO[C@H]1/C=C/C[C@H](C)C[S@@](=O)(NC(=O)N2CC3(CCO3)C2)=NC(=O)c2ccc3c(c2)N(C[C@@H]2CC[C@H]21)C[C@@]1(CCCc2cc(Cl)ccc21)CO3 [Example 230],47.1
16,CO[C@H]1/C=C/C[C@H](C)C[S@@](=O)(NC(=O)N2CC3(CCCO3)C2)=NC(=O)c2ccc3c(c2)N(C[C@@H]2CC[C@H]21)C[C@@]1(CCCc2cc(Cl)ccc21)CO3 [Example 231],40
17,CO[C@H]1/C=C/CCC[S@@](=O)(NC(=O)CCc2nnc(C)s2)=NC(=O)c2ccc3c(c2)N(C[C@@H]2CC[C@H]21)C[C@@]1(CCCc2cc(Cl)ccc21)CO3 [Example 102],891
18,"CO[C@H]1/C=C/C[C@H](C)C[S@@](=O)(NC(=O)[C@H]2Cc3ccccc3CO2)=NC(=O)c2ccc3c(c2)N(C[C@@H]2CC[C@H]21)C[C@@]1(CCCc2cc(Cl)ccc21)CO3 (single isomer, unassigned) [Example 143]",219
19,CO[C@H]1/C=C/CCC[S@@](=O)(NC(=O)CCc2csc(C)n2)=NC(=O)c2ccc3c(c2)N(C[C@@H]2CC[C@H]21)C[C@@]1(CCCc2cc(Cl)ccc21)CO3 [Example 99],2090
20,CO[C@H]1/C=C/C[C@H](C)C[S@@](=O)(NC(=O)N2CC(C(C)(C)O)C2)=NC(=O)c2ccc3c(c2)N(C[C@@H]2CC[C@H]21)C[C@@]1(CCCc2cc(Cl)ccc21)CO3 [Example 237],121
21,CO[C@H]1/C=C/CCC[S@@](=O)(NC(=O)CCc2ncsc2C)=NC(=O)c2ccc3c(c2)N(C[C@@H]2CC[C@H]21)C[C@@]1(CCCc2cc(Cl)ccc21)CO3 [Example 101],2590
22,COc1nn(C2CC2)cc1C(=O)N[S@@]1(=O)=NC(=O)c2ccc3c(c2)N(C[C@@H]2CC[C@H]2[C@@H](OC)/C=C/C[C@H](C)C1)C[C@@]1(CCCc2cc(Cl)ccc21)CO3 [Example 262],85.8
23,CO[C@H]1/C=C/C[C@H](C)C[S@@](=O)(NC(=O)C2CC(OC(F)F)C2)=NC(=O)c2ccc3c(c2)N(C[C@@H]2CC[C@H]21)C[C@@]1(CCCc2cc(Cl)ccc21)CO3 (stereo partly shown) [Example 431],233
24,CO[C@H]1/C=C/CCC[S@@](=O)(NC(=O)COc2ccccc2)=NC(=O)c2ccc3c(c2)N(C[C@@H]2CC[C@H]21)C[C@@]1(CCCc2cc(Cl)ccc21)CO3 [Example 96],604
25,COc1nn(C)cc1C(=O)N[S@@]1(=O)=NC(=O)c2ccc3c(c2)N(C[C@@H]2CC[C@H]2[C@@H](OC(=O)CC(C)C)/C=C/C[C@H](C)C1)C[C@@]1(CCCc2cc(Cl)ccc21)CO3 [Example 381],534

# Same assay, conditions: Homo sapiens, SK-BR-3, 72 h, CellTiter Glo luminescence, read-out: MCL-1 CV SKBR3 EC50
row,SMILES,EC50 [nM]
1,CO[C@H]1/C=C/CCC[S@@](=O)(NC(=O)CCc2ccnn2C)=NC(=O)c2ccc3c(c2)N(C[C@@H]2CC[C@H]21)C[C@@]1(CCCc2cc(Cl)ccc21)CO3 [Example 22],259
2,COc1nn(C)cc1C(=O)N[S@@]1(=O)=NC(=O)c2ccc3c(c2)N(C[C@@H]2CC[C@H]2[C@@H](OC)/C=C/[C@H](OC(=O)c2cn(C)nc2OC)CC1)C[C@@]1(CCCc2cc(Cl)ccc21)CO3 [Example 391],4560
3,CO[C@H]1/C=C/CCC[S@@](=O)(NC(=O)CCc2cocn2)=NC(=O)c2ccc3c(c2)N(C[C@@H]2CC[C@H]21)C[C@@]1(CCCc2cc(Cl)ccc21)CO3 [Example 57],596
4,CCc1nn(C)cc1C(=O)N[S@@]1(=O)=NC(=O)c2ccc3c(c2)N(C[C@@H]2CC[C@H]2[C@@H](OC)/C=C/C[C@H](C)[C@H]1C)C[C@@]1(CCCc2cc(Cl)ccc21)CO3 [Example 188],78.3
5,CO[C@H]1/C=C/C[C@H](C)C[S@@](=O)(NC(=O)NC2CC2)=NC(=O)c2ccc3c(c2)N(C[C@@H]2CC[C@H]21)C[C@@]1(CCCc2cc(Cl)ccc21)CO3 [Example 170],210
